One data set deals with Escherichia coli. In words: CD50 in the mouse, Escherichia coli. The format is in vivo. The text has this: (§1) |CD50 (mg/kg) in the mouse
Another data set is described as follows: Acute Toxicity. The settings on record: mouse, in vivo.
Text: as §1

The subject of the next data set is Proteus Vulganis. In words: CD50 in the mouse, Proteus Vulganis. The format is in vivo.
Text: as §1

For another data set, the system named is Pseudomonas Aeriginmos. In words: CD50 in the mouse, Pseudomonas Aeriginmos. The format is in vivo.
Text: as §1

In data set [1] the test system is S. aureous (penicillin resistant). As to the kind of experiment: CD50 in the mouse, S. aureous (penicillin resistant). The format is in vivo.
Text: as §1

Setting [2] is: Pseudomonas, po, read-out: CD50.

Like-named read-outs stand apart in the source and are kept apart here.

As to `CC(C)CC(C(=O)N[C@@H]1C(=O)N2[C@@H]1SC(C)(C)[C@@H]2C(=O)O)C(=O)OCc1ccccc1` (some centres unmarked) [(1-benzyloxycarbonyl-3-methylbutyl)-penicillin sodium], the ED50 turned out to be 9 mg/kg in the data set with Escherichia coli (po, P.O.); 8.9 mg/kg with Proteus Vulganis (po, P.O.); 142 mg/kg with Pseudomonas Aeriginmos (setting [2]). This compound displayed an LD50 in “Acute Toxicity” (po) of 2500 to 5000 mg/kg.

For `CC(C)CC(C(=O)O)C(=O)N[C@@H]1C(=O)N2[C@@H]1SC(C)(C)[C@@H]2C(=O)O` (some centres unmarked) [(1-Carboxy-3-methyl-butyl)-penicillin di-sodium], the ED50 stood at 2.4 mg/kg in the data set with Escherichia coli (sc, S.C.); 6.2 mg/kg with Proteus Vulganis (sc, S.C.); 34 mg/kg in data set [1] (sc, S.C.); 124 mg/kg in the data set on Pseudomonas Aeriginmos (Pseudomonas, sc, read-out: CD50). Further, the median lethal dose (LD50) in “Acute Toxicity” (iv) fell in the range of 2000 to 4000 mg/kg.

Regarding `CCOC(=O)C(CC(C)C)C(=O)N[C@@H]1C(=O)N2[C@@H]1SC(C)(C)[C@@H]2C(=O)O` (some centres unmarked) [(1-[ethoxycarbonyl-3-methylbutyl)]-penicillin sodium], the ED50 with Escherichia coli (po, P.O.) is 14 mg/kg; with Escherichia coli (sc, S.C.) it was 2.1 mg/kg; in data set [1] (po, P.O.), about 100 mg/kg; in data set [1] (sc, S.C.), 22 mg/kg; in the data set with Pseudomonas Aeriginmos (setting [2]), about 100 mg/kg; in the data set on Pseudomonas Aeriginmos (sc, Pseudomonas Aeriginmos, mouse, S.C., read-out: CD50 (the source's name)), about 80 mg/kg. Also, the LD50 in “Acute Toxicity” was 5000 mg/kg; in “Acute Toxicity” (iv) it was 2000 to 4000 mg/kg.

The term LD50 denotes the dose expected to kill half of the subjects tested. The low end stands for a more toxic substance, the high end for a less toxic substance.

The values above are taken from patent US4005073A, “6-Acyl derivatives of aminopenicillanic acid” (priority 1974, dated 1977).
